Reference: patent publication US7300918B2, “Method of producing vaccines from protein signal oligopeptides” (priority 1994, dated 2007)
Where “and” joins values, the source holds several entries; their conditions need not be identical. Identical values can stand only once.

System: Hep G2 cells
Assay: Cholesterol measurement in Hep G2 cells exposed to HMG CoA Reductase peptides
Format: cell-based, human
Conditions: 24 hrs; for Cholesterol Content Cell / Cholesterol Content Media: triplicate; for Total Cholesterol: cell + media
From the text: Cholesterol Measurement in Hep G2 Cells Exposed to HMG CoA Reductase Peptides:
A. Selection of therapeutic oligopeptides for these expenments • i. The peptides were selected according to the method described herein. In brief, 6 oligopeptides corresponding to the hydrophilic amino acid maxima of human hydroxy-methyl-glutaryl-CoA-reductase were selected according to the maximum hydrophilicity determining algorithm described herein. The following sequences were selected. • I. N-SQDEVREN-C (SEQ ID NO:42) • II. N-ELSRESREGR-C (SEQ ID NO:44) • III. N-RVLEEEENK-C (SEQ ID NO:46) • IV. N-QKCDSVEE-C (SEQ ID NO:56) • V. N-EETGINRERKVE-C (SEQ ID NO:60) • VI. N-EPEIELPREPRPNEE-C (SEQ ID NO:64)
B. Materials and methods • i. Hep G2 cells were seeded into six-well dishes at 30,0000 cells/well in MEM-supplemented media with 10% FBS. Cells were grown to near confluency and exposed to • I. media alone • II. Mevastatin 5ΦMol (Cholestrol-lowering Statin drug) and, • III. HMG CoA Reductase peptides at 1, 10 and 100 ΦMol. • ii. All treatments were carried out in triplicate. After 24 hrs the media was removed and saved. • iii. The cells were washed with 1 ml of PBS and combined with the media. The cells were harvested with 1 ml of 0.1 N NaOH. • iv. Samples, both media and cells, were saponified with 0.5 ml 50% KOH, 3 ml ethanol, separately at 80EC for 2 hrs. • v. After cooling, the samples were extracted twice with petroleum ether and washed with NaOH. • vi. The samples were the dried under nitrogen and suspended in 200 Φl ethanol. • vii. 50 Φl of this suspension was used for determination of cholesterol. Cholesterol was determined in the samples and standards using colorimetric assay (Sigma Kit). • viii. Protein was determined by Lowry's method and the results were expressed as Φgm cholesterol/mg protein. C. Results • i.

Row | Molecule | Cholesterol Lowering in % of Control (5 ΦM) | Cholesterol Content Cell (5 ΦM) | Cholesterol Content Media (5 ΦM) | Total Cholesterol (5 ΦM) | Cholesterol Lowering in % of Control (1 ΦM) | Cholesterol Content Cell (1 ΦM) | Cholesterol Content Media (1 ΦM) | Cholesterol Lowering in % of Control (10 ΦM) | Cholesterol Content Cell (10 ΦM) | Cholesterol Content Media (10 ΦM) | Cholesterol Lowering in % of Control (100 ΦM) | Cholesterol Content Cell (100 ΦM) | Cholesterol Content Media (100 ΦM) | Total Cholesterol (1 ΦM) | Total Cholesterol (10 ΦM) | Total Cholesterol (100 ΦM)
1 | CC[C@H](C)C(=O)O[C@H]1CCC=C2C=C[C@H](C)[C@H](CC[C@@H]3C[C@@H](O)CC(=O)O3)[C@H]21 [Mevastatin, reference compound] | 19.0% and 18.0% | 125.0 ± 4.6 Φ gm/mg protein and 124.4 ± 4.4 Φ gm/mg protein | 37.5 ± 3.0 Φ gm/mg protein and 57.5 ± 5.2 Φ gm/mg protein | 162.6 ± 7.6 Φ gm/mg protein and 182.0 ± 7.0 Φ gm/mg protein |  |  |  |  |  |  |  |  |  |  |  | 
2 | N-EETGINRERKVE-C [Peptide 5, oligopeptide corresponding to a hydrophilic amino acid maximum of human hydroxy-methyl-glutaryl-CoA-reductase] |  |  |  |  | 1.5% | 140.7 ± 8.6 Φ gm/mg protein | 56.8 ± 1.0 Φ gm/mg protein | 0.0% | 149.0 ± 4.4 Φ gm/mg protein | 50.7 ± 1.0 Φ gm/mg protein | 0.0% | 161.7 ± 23.5 Φ gm/mg protein | 48.0 ± 1.6 Φ gm/mg protein | 197.0 ± 9.2 Φ gm/mg protein | 200.0 ± 5.0 Φ gm/mg protein | 210.0 ± 25.0 Φ gm/mg protein
3 | N-ELSRESREGR-C [Peptide 2, oligopeptide corresponding to a hydrophilic amino acid maximum of human hydroxy-methyl-glutaryl-CoA-reductase] |  |  |  |  | 29.0% | 94.0 ± 8.3 Φ gm/mg protein | 64.3 ± 4.2 Φ gm/mg protein | 33.0% | 85.0 ± 8.4 Φ gm/mg protein | 63.7 ± 9.5 Φ gm/mg protein | 34.0% | 86.0 ± 4.7 Φ gm/mg protein | 59.0 ± 6.0 Φ gm/mg protein | 158.3 ± 6.3 Φ gm/mg protein | 148.6 ± 11.8 Φ gm/mg protein | 146.9 ± 8.8 Φ gm/mg protein
4 | N-EPEIELPREPRPNEE-C [Peptide 6, oligopeptide corresponding to a hydrophilic amino acid maximum of human hydroxy-methyl-glutaryl-CoA-reductase] |  |  |  |  | 4.0% | 144.3 ± 7.5 Φ gm/mg protein | 47.4 ± 0.5 Φ gm/mg protein | 8.0% | 136.0 ± 12.2 Φ gm/mg protein | 48.0 ± 3.4 Φ gm/mg protein | 9.0% | 132.0 ± 4.4 Φ gm/mg protein | 50.4 ± 1.0 Φ gm/mg protein | 192.0 ± 8.0 Φ gm/mg protein | 184.0 ± 8.4 Φ gm/mg protein | 182.4 ± 4.8 Φ gm/mg protein
5 | N-QKCDSVEE-C [Peptide 4, oligopeptide corresponding to a hydrophilic amino acid maximum of human hydroxy-methyl-glutaryl-CoA-reductase] |  |  |  |  | 8.0% | 134.7 ± 3.2 Φ gm/mg protein | 50.4 ± 2.5 Φ gm/mg protein | 10.0% | 126.1 ± 4.2 Φ gm/mg protein | 49.0 ± 1.0 Φ gm/mg protein | 9.0% | 127.7 ± 9.3 Φ gm/mg protein | 53.8 ± 0.5 Φ gm/mg protein | 184.3 ± 5.5 Φ gm/mg protein | 175.2 ± 3.8 Φ gm/mg protein | 181.7 ± 9.3 Φ gm/mg protein
6 | N-RVLEEEENK-C [Peptide 3, oligopeptide corresponding to a hydrophilic amino acid maximum of human hydroxy-methyl-glutaryl-CoA-reductase] |  |  |  |  | 10.0% | 137.3 ± 4.5 Φ gm/mg protein | 64.0 ± 2.7 Φ gm/mg protein | 10.0% | 135.0 ± 4.5 Φ gm/mg protein | 65.5 ± 4.7 Φ gm/mg protein | 10.0% | 135.0 ± 7.0 Φ gm/mg protein | 65.5 ± 1.4 Φ gm/mg protein | 201.3 ± 3.3 Φ gm/mg protein | 200.7 ± 9.0 Φ gm/mg protein | 200.5 ± 5.4 Φ gm/mg protein
7 | N-SQDEVREN-C [Peptide 1, oligopeptide corresponding to a hydrophilic amino acid maximum of human hydroxy-methyl-glutaryl-CoA-reductase] |  |  |  |  | 28.0% | 92.5 ± 4.7 Φ gm/mg protein | 65.2 ± 4.0 Φ gm/mg protein | 30.0% | 88.6 ± 1.6 Φ gm/mg protein | 60.6 ± 0.5 Φ gm/mg protein | 30.0% | 94.0 ± 4.0 Φ gm/mg protein | 61.1 ± 2.4 Φ gm/mg protein | 158.7 ± 5.6 Φ gm/mg protein | 149.1 ± 2.0 Φ gm/mg protein | 155.3 ± 6.4 Φ gm/mg protein
